# In US10281463B2, “Methods of determining cellular phenotypes” (Technion Research & Development Foundation Limited, priority 2015, dated 2019):
# Legend:
# E. coli [1] = assay: Antibiotic susceptibility testing of E. coli growth on photonic microarrays diffraction grating (relative EOT shift over time); type: cell-based; conditions: for Cross comparison of antibiotic effect at the same concentration (type of effect): 5 μg/mL of respective antibiotic, E. coli, FIG. 17; for MIC: Escherichia coli, E. coli proliferation on photonic microarrays diffraction grating, antibiotic introduced at time 0 at increasing concentrations, read-out: MIC (minimal inhibitory concentration) observed from EOT growth curves
# Excerpt: A SiPA placed in a flow-device having an inlet and an outlet. […] Fluid containing bacteria is introduced through the inlet. Light reflected from the top and bottom of the pores is collected by the optical setup. The phase delay between the incident and the reflected light beams is proportional to the depth (L) of the pores, and the refractive index of the medium filling the pores. The presence of bacterial cells in the pores increase the refractive index of the pores. Thus, the phase delay of the reflected light in the presence of the bacteria differs from the phase delay of the reflected light in the absence of the bacteria, so that analysis of the light collected by the optical setup can provide indication regarding the phenotype of the cells.
# The FFT provides the value (2 nL), where L is the average depth of the pores and n is their refractive index. This quantity is also referred to as the Effective Optical Thickness (EOT). The measured shift in the EOT value is a function of the change in the refraction index of the pole: ΔEOT/EOT0=2(Δn/n0)L, where n0 is the refractive index of the pores before the introduction of the bacteria into the pores, Δn is the change in the refractive index as a result of the introduction of the cells into the compartments, and EOT0 is the EOT before introducing the cells into the compartments. Δn is thus correlated with the pore's volume fraction occupied by bacteria cells.
# Types of optical kinetic profiles made by bacterial cells on photonic microarrays diffraction grating (e.g., SiPA) include, without limitation, • 1. Bacteria cells are seeded into the pores/structures. Full growth media is supplied to the cells until a growth curve is established. • a. An anti-proliferation drug (bacteriostatic/antibiotics) is added to the media (see FIG. 7) and the correlation of EOT growth curve and drug concentration is analyzed. The MIC (minimal inhibitory concentration) is determined when the EOT shift becomes null. • b. If the drug is later remove from the media (see FIG. 8), the cell growth may resume, if the drug effect is reversible. • c. If the drug is bactericidal or its bacteriostatic effect is irreversible, then the EOT curve will retract as dead cells disintegrate and exit the pores (see FIG. 8). • d. If the growth media if deficient with critical nutrient or factor, then EOT growth curve will decline in relation to the deficiency (see FIG. 9). • 2. Bacteria suspension is introduced to the photonic microarrays diffraction grating under constant flow conditions, in salt buffer solution. • a. If the suspension contains an anti-attachment drug/factor that will affect pore/structure colonization, then correlation of EOT curve and drug concentration can be analyzed (see FIG. 10). • b. Once a stable EOT curve is established, the bacteria suspension is replaced with clean buffer to challenge the bacteria adhesion. If cells are rinsed out of the pores, EOT plot will retract (see FIG. 11).
# E. coli [2] = assay: E. coli colonization of SiPA as a function of surface functionality (rate of EOT shift); type: cell-based; conditions: FIG. 12A
# Experimental: The method includes the continuous or rapid serial monitoring of the light interferometry spectra obtained from a surface with reflective periodic topography (PRT), prior, during and following the controlled introduction of bacterial suspensions to it and/or addition of drugs/substances. Said interferometry spectra is analyzed (for example by fast Fourier transform) to reveal the rate of optical shift, e.g., the time-dependent alterations in the reflected light properties of said PRT, inflicted by the behavior of the cells (for example settling, adhering, migrating or proliferating).
# Types of optical kinetic profiles made by bacterial cells on photonic microarrays diffraction grating (e.g., SiPA) include, without limitation, • 1. Bacteria cells are seeded into the pores/structures. Full growth media is supplied to the cells until a growth curve is established. • a. An anti-proliferation drug (bacteriostatic/antibiotics) is added to the media (see FIG. 7) and the correlation of EOT growth curve and drug concentration is analyzed. The MIC (minimal inhibitory concentration) is determined when the EOT shift becomes null. • b. […] If the suspension contains an anti-attachment drug/factor that will affect pore/structure colonization, then correlation of EOT curve and drug concentration can be analyzed (see FIG. 10). • b. […]
Compound,MIC (E. coli [1]),Cross comparison of antibiotic effect at the same concentration (type of effect) (E. coli [1]),Improvement of E. Coli colonization over neat SiO2 or albumin (E. coli [2]; SiPA coated with WGA),"Effect of WGA ligand in the suspension on WGA-improved colonization (E. coli [2]; NAG incorporated in the E. coli suspension, WGA-coated SiPA)"
COc1cc(Cc2cnc(N)nc2N)cc(OC)c1OC [Trimethoprim],5 to 50 µg/mL,below the MIC concentration,–,–
Wheat-germ agglutinin [WGA],–,–,5 times,–
CC(=O)N[C@@H]1[C@@H](O)[C@H](O)[C@@H](CO)O[C@@H]1O [NAG],–,–,–,completely eliminate this effect

# Further lines, with some results ahead:
MIC (E. coli [1]),Compound,Cross comparison of antibiotic effect at the same concentration (type of effect) (E. coli [1]),Improvement of E. Coli colonization over neat SiO2 or albumin (E. coli [2]; SiPA coated with WGA),"Effect of WGA ligand in the suspension on WGA-improved colonization (E. coli [2]; NAG incorporated in the E. coli suspension, WGA-coated SiPA)"
0.005 to 0.05 µg/mL,O=C(O)c1cn(C2CC2)c2cc(N3CCNCC3)c(F)cc2c1=O [Ciprofloxacin],bacteriostatic,–,–
0.005 to 0.05 µg/mL,CO/N=C(\C(=O)N[C@@H]1C(=O)N2C(C(=O)O)=C(CSc3nc(=O)c(=O)[nH]n3C)CS[C@H]12)c1csc(N)n1 [Ceftriaxone Sodium],bactericidal,–,–
